Tested on: MV-4-11 cells
Assay: Gene expression microarray analysis (Affymetrix PrimeView) and GSEA
Type: cell-based, human
Set-up: RFU PODN (11730768_x_at) / Fold change /veh PODN (11730768_x_at) / RFU LINC00158 (11744669_a_at) / Fold change /veh LINC00158 (11744669_a_at) / RFU DUSP10 (11751237_a_at) / Fold change /veh DUSP10 (11751237_a_at) / RFU ID3 (11757404_x_at) / Fold change /veh ID3 (11757404_x_at) / RFU PLEKHG5 (11737974_s_at) / Fold change /veh PLEKHG5 (11737974_s_at) / RFU LRRC4B (11730491_at) / Fold change /veh LRRC4B (11730491_at) / RFU GIMAP4 (11747438_a_at) / Fold change /veh GIMAP4 (11747438_a_at) / RFU KRT8 (11758183_x_at) / Fold change /veh KRT8 (11758183_x_at) / RFU CNN1 (11734310_a_at) / Fold change /veh CNN1 (11734310_a_at) / RFU VPS37D (11726825_at) / Fold change /veh VPS37D (11726825_at) / RFU C10orf10 (11716522_x_at) / Fold change /veh C10orf10 (11716522_x_at) / RFU KIR2DL2 /// KIR2DL4 /// KIR2DL5A /// KIR2DL5B /// KIR2DS1 /// KIR2DS2 /// KIR2DS3 /// KIR2DS4 /// KIR3DL3 /// KIR3DL3 /// KIR3DS1 (11738374_at) / Fold change /veh KIR2DL2 /// KIR2DL4 /// KIR2DL5A /// KIR2DL5B /// KIR2DS1 /// KIR2DS2 /// KIR2DS3 /// KIR2DS4 /// KIR3DL3 /// KIR3DL3 /// KIR3DS1 (11738374_at) / RFU C1QL1 (11718748_at) / Fold change /veh C1QL1 (11718748_at) / RFU TMPRSS4 (11747572_a_at) / Fold change /veh TMPRSS4 (11747572_a_at) / RFU HAMP (11756126_x_at) / Fold change /veh HAMP (11756126_x_at) / RFU RNFT2 (11725882_a_at) / Fold change /veh RNFT2 (11725882_a_at) / RFU NR4A2 (11747474_a_at) / Fold change /veh NR4A2 (11747474_a_at) / RFU ABCC12 (11746883_a_at) / Fold change /veh ABCC12 (11746883_a_at) / RFU TMEM136 (11760407_x_at) / Fold change /veh TMEM136 (11760407_x_at) / RFU CLDN22 /// WWC2 (11732394_at) / Fold change /veh CLDN22 /// WWC2 (11732394_at) / RFU HLA-DPB1 (11760878_x_at) / Fold change /veh HLA-DPB1 (11760878_x_at) / RFU SPINT1 (11716480_a_at) / Fold change /veh SPINT1 (11716480_a_at) / RFU GAP43 (11754022_s_at) / Fold change /veh GAP43 (11754022_s_at) / RFU A4GNT (11735810_at) / Fold change /veh A4GNT (11735810_at) / RFU PRB3 (11715151_x_at) / Fold change /veh PRB3 (11715151_x_at) / RFU TUBB4B (11761932_at) / Fold change /veh TUBB4B (11761932_at) / RFU CAPN14 (11732068_a_at) / Fold change /veh CAPN14 (11732068_a_at) / RFU TMCC2 (11721928_a_at) / Fold change /veh TMCC2 (11721928_a_at) / RFU IRGQ (11745062_a_at) / Fold change /veh IRGQ (11745062_a_at) / RFU FAM174B (11720279_a_at) / Fold change /veh FAM174B (11720279_a_at) / RFU TMPRSS4 (11748680_a_at) / Fold change /veh TMPRSS4 (11748680_a_at) / RFU FAM212B (11763350_a_at) / Fold change /veh FAM212B (11763350_a_at) / RFU PLEKHG5 (11743358_a_at) / Fold change /veh PLEKHG5 (11743358_a_at) / RFU ZSCAN30 (11745921_a_at) / Fold change /veh ZSCAN30 (11745921_a_at) / RFU CMKLR1 (11741424_a_at) / Fold change /veh CMKLR1 (11741424_a_at) / RFU LOC101060620 /// MAPK8IP1 (11723275_at) / Fold change /veh LOC101060620 /// MAPK8IP1 (11723275_at) / RFU SPTSSB (11747773_x_at) / Fold change /veh SPTSSB (11747773_x_at) / RFU PRSS12 (11739890_at) / Fold change /veh PRSS12 (11739890_at) / RFU BIN1 (11741810_x_at) / Fold change /veh BIN1 (11741810_x_at) / RFU WNT11 (11732464_a_at) / Fold change /veh WNT11 (11732464_a_at) / RFU C10orf10 (11716521_a_at) / Fold change /veh C10orf10 (11716521_a_at) / RFU C5orf56 (11738089_at) / Fold change /veh C5orf56 (11738089_at) / RFU CYB561 (11721691_x_at) / Fold change /veh CYB561 (11721691_x_at) / RFU ANKRD19P (11752326_a_at) / Fold change /veh ANKRD19P (11752326_a_at) / RFU OR2T12 /// OR2T33 /// OR2T8 (11738714_s_at) / Fold change /veh OR2T12 /// OR2T33 /// OR2T8 (11738714_s_at) / RFU VCAN (11748164_a_at) / Fold change /veh VCAN (11748164_a_at) / RFU JSRP1 (11732532_at) / Fold change /veh JSRP1 (11732532_at) / RFU KRTAP10-11 (11738290_x_at) / Fold change /veh KRTAP10-11 (11738290_x_at) / RFU MYO3A (11730013_a_at) / Fold change /veh MYO3A (11730013_a_at) / RFU EBF3 (11725865_a_at) / Fold change /veh EBF3 (11725865_a_at) / RFU CAMK2N1 (11719241_x_at) / Fold change /veh CAMK2N1 (11719241_x_at) / RFU C5orf56 (11738088_a_at) / Fold change /veh C5orf56 (11738088_a_at) / RFU OLFML3 (11715873_a_at) / Fold change /veh OLFML3 (11715873_a_at) / RFU LOC100653217 /// NTM (11731650_a_at) / Fold change /veh LOC100653217 /// NTM (11731650_a_at) / RFU MAPK11 (11762145_a_at) / Fold change /veh MAPK11 (11762145_a_at) / RFU FIZ1 (11724087_x_at) / Fold change /veh FIZ1 (11724087_x_at) / RFU OASL (11726364_x_at) / Fold change /veh OASL (11726364_x_at) / RFU SOX15 (11748057_x_at) / Fold change /veh SOX15 (11748057_x_at) / RFU CD79A (11719716_a_at) / Fold change /veh CD79A (11719716_a_at) / RFU HIST1H1D (11736915_at) / Fold change /veh HIST1H1D (11736915_at) / RFU CASKIN2 (11723855_a_at) / Fold change /veh CASKIN2 (11723855_a_at) / RFU LOC730098 (11760151_x_at) / Fold change /veh LOC730098 (11760151_x_at) / RFU OR4N2 (11742367_at) / Fold change /veh OR4N2 (11742367_at) / RFU PRRT2 (11749266_a_at) / Fold change /veh PRRT2 (11749266_a_at) / RFU SNX32 (11753110_a_at) / Fold change /veh SNX32 (11753110_a_at) / RFU CDHR5 (11726645_a_at) / Fold change /veh CDHR5 (11726645_a_at) / RFU RCAN1 (11760418_a_at) / Fold change /veh RCAN1 (11760418_a_at) / RFU FAM167A (11723789_a_at) / Fold change /veh FAM167A (11723789_a_at) / RFU FAM26E (11764081_at) / Fold change /veh FAM26E (11764081_at) / RFU ISYNA1 (11749810_s_at) / Fold change /veh ISYNA1 (11749810_s_at) / RFU ACY1 (11761880_at) / Fold change /veh ACY1 (11761880_at) / RFU 11764098_at / Fold change /veh 11764098_at / RFU SAMD14 (11745864_x_at) / Fold change /veh SAMD14 (11745864_x_at) / RFU NPB (11741838_a_at) / Fold change /veh NPB (11741838_a_at) / RFU TMPRSS6 (11731388_a_at) / Fold change /veh TMPRSS6 (11731388_a_at) / RFU KRTAP10-2 (11738614_at) / Fold change /veh KRTAP10-2 (11738614_at) / RFU ARHGAP8 /// PRR5-ARHGAP8 (11727945_x_at) / Fold change /veh ARHGAP8 /// PRR5-ARHGAP8 (11727945_x_at) / RFU KRTAP5-7 /// NADSYN1 (11734609_at) / Fold change /veh KRTAP5-7 /// NADSYN1 (11734609_at) / RFU RASL12 (11751679_a_at) / Fold change /veh RASL12 (11751679_a_at) / RFU CDKN2B (11736163_a_at) / Fold change /veh CDKN2B (11736163_a_at) / RFU PRF1 (11729649_at) / Fold change /veh PRF1 (11729649_at) / RFU, ZNF638 /// ZNF638-IT1 / Fold change vs veh, ZNF638 /// ZNF638-IT1 / RFU, PANK3 / Fold change vs veh, PANK3 / RFU, SH3YL1 / Fold change vs veh, SH3YL1 / RFU, ZEB2 / Fold change vs veh, ZEB2 / RFU, NRIP1 / Fold change vs veh, NRIP1 / RFU, PTTG1IP / Fold change vs veh, PTTG1IP / RFU, CAPN2 / Fold change vs veh, CAPN2 / RFU, MED14 / Fold change vs veh, MED14 / RFU, SNORA58 / Fold change vs veh, SNORA58 / RFU, C1orf63 / Fold change vs veh, C1orf63 / RFU, LRRFIP1 / Fold change vs veh, LRRFIP1 / RFU, NDUFAF7 / Fold change vs veh, NDUFAF7 / RFU, SLC12A2 / Fold change vs veh, SLC12A2 / RFU, IBTK / Fold change vs veh, IBTK / RFU, ESF1 / Fold change vs veh, ESF1 / Fold change vs veh, TMEM50B / RFU, TAOK1 / Fold change vs veh, TAOK1 / RFU, ACBD3 / Fold change vs veh, ACBD3 / RFU, TMA16 / Fold change vs veh, TMA16 / RFU, RWDD3 / Fold change vs veh, RWDD3 / RFU, BCAT1 / Fold change vs veh, BCAT1 / RFU, EDEM3 / Fold change vs veh, EDEM3 / RFU, TMEM33 / Fold change vs veh, TMEM33 / RFU, WDR75 / Fold change vs veh, WDR75 / RFU, AHCTF1 / Fold change vs veh, AHCTF1 / RFU, TFRC / Fold change vs veh, TFRC / RFU, ZDHHC17 / Fold change vs veh, ZDHHC17 / RFU, NOM1 / Fold change vs veh, NOM1 / RFU, ARL8B / Fold change vs veh, ARL8B / RFU, ZBTB11 / Fold change vs veh, ZBTB11 / RFU, TAMM41 / Fold change vs veh, TAMM41 / RFU, KIAA1704 /// LOC100996395 / Fold change vs veh, KIAA1704 /// LOC100996395 / RFU, ING1 / Fold change vs veh, ING1 / RFU, TRMT61B / Fold change vs veh, TRMT61B / RFU, FUBP3 / Fold change vs veh, FUBP3 / RFU, TP53 / Fold change vs veh, TP53 / RFU, TNKS2 / Fold change vs veh, TNKS2 / RFU, ZFP14 / Fold change vs veh, ZFP14 / RFU, ACTR2 / Fold change vs veh, ACTR2 / RFU, PPP3R1 / Fold change vs veh, PPP3R1 / RFU, PIK3R1 / Fold change vs veh, PIK3R1 / RFU, HNRNPA1 / Fold change vs veh, HNRNPA1 / RFU, RNF170 / Fold change vs veh, RNF170 / RFU, ZNF28 / Fold change vs veh, ZNF28 / RFU, RNGTT / Fold change vs veh, RNGTT / RFU, OGT / Fold change vs veh, OGT / RFU, BRD1 / Fold change vs veh, BRD1 / RFU, MARS / Fold change vs veh, MARS / RFU, ZNF655 / Fold change vs veh, ZNF655 / RFU, FAHD1 / Fold change vs veh, FAHD1 / RFU, BDP1 / Fold change vs veh, BDP1 / RFU, LRRCC1 / Fold change vs veh, LRRCC1 / RFU, ARID1A / Fold change vs veh, ARID1A / RFU, ZNF146 / Fold change vs veh, ZNF146 / RFU, ZNF330 / Fold change vs veh, ZNF330 / RFU, GPN3 / Fold change vs veh, GPN3 / RFU, C9orf123 / Fold change vs veh, C9orf123 / RFU, N4BP2L2 / Fold change vs veh, N4BP2L2 / RFU, ARFIP1 / Fold change vs veh, ARFIP1 / RFU, FAM179B / Fold change vs veh, FAM179B / RFU, BCL10 / Fold change vs veh, BCL10 / RFU, UHRF1BP1L / Fold change vs veh, UHRF1BP1L / RFU, BET1 / Fold change vs veh, BET1 / RFU, CNOT2 / Fold change vs veh, CNOT2 / RFU, ZNF268 / Fold change vs veh, ZNF268 / Fold change vs veh, ZNF507 / RFU, DGCR2 / Fold change vs veh, DGCR2 / RFU, WDSUB1 / Fold change vs veh, WDSUB1 / Fold change vs veh, HSP90B1 /// MIR3652 / RFU, ADSS / Fold change vs veh, ADSS / RFU, GK / Fold change vs veh, GK / RFU, ZNF148 / Fold change vs veh, ZNF148 / RFU, TAF9 / Fold change vs veh, TAF9 / RFU, SLC1A5 / Fold change vs veh, SLC1A5 / RFU, SLMO2 / Fold change vs veh, SLMO2 / RFU, ABCC4 / Fold change vs veh, ABCC4 / RFU, LOC101060439 /// RAP1B / Fold change vs veh, LOC101060439 /// RAP1B / RFU, RFX7 / Fold change vs veh, RFX7 / RFU, GTPBP10 / Fold change vs veh, GTPBP10 / RFU, CNEP1R1 / Fold change vs veh, CNEP1R1 / RFU, BIVM-ERCC5 /// ERCC5 / Fold change vs veh, BIVM-ERCC5 /// ERCC5 / RFU, ILF3 / Fold change vs veh, ILF3 / RFU 11762660_at / Fold change /veh 11762660_at / RFU VCAN (11757783_s_at) / Fold change /veh VCAN (11757783_s_at) / RFU DDX43 (11728927_at) / Fold change /veh DDX43 (11728927_at) / RFU KRT8 (11758188_x_at) / Fold change /veh KRT8 (11758188_x_at) / RFU NKD1 (11759106_at) / Fold change /veh NKD1 (11759106_at) / RFU SRD5A1 (11742802_a_at) / Fold change /veh SRD5A1 (11742802_a_at) / RFU TPSAB1 /// TPSB2 (11721975_s_at) / Fold change /veh TPSAB1 /// TPSB2 (11721975_s_at) / RFU GSTM3 (11746129_a_at) / Fold change /veh GSTM3 (11746129_a_at) / RFU IL23R (11737362_x_at) / Fold change /veh IL23R (11737362_x_at) / RFU TMEM51 (11727254_a_at) / Fold change /veh TMEM51 (11727254_a_at) / RFU PIWIL2 (11732686_x_at) / Fold change /veh PIWIL2 (11732686_x_at) / RFU ORM1 (11744905_x_at) / Fold change /veh ORM1 (11744905_x_at) / RFU CCDC152 (11743942_at) / Fold change /veh CCDC152 (11743942_at) / RFU ECM1 (11717891_a_at) / Fold change /veh ECM1 (11717891_a_at) / RFU IL23R (11748794_a_at) / Fold change /veh IL23R (11748794_a_at) / RFU TNFAIP8L3 (11732012_x_at) / Fold change /veh TNFAIP8L3 (11732012_x_at) / RFU MBOAT4 (11741988_at) / Fold change /veh MBOAT4 (11741988_at) / RFU 11764193_at / Fold change /veh 11764193_at / RFU TMEM53 (11763286_at) / Fold change /veh TMEM53 (11763286_at) / RFU MAGEB2 (11727129_at) / Fold change /veh MAGEB2 (11727129_at) / RFU TMEM200A (11744735_a_at) / Fold change /veh TMEM200A (11744735_a_at) / RFU CCDC152 (11751479_a_at) / Fold change /veh CCDC152 (11751479_a_at) / RFU FAM211A (11726209_a_at) / Fold change /veh FAM211A (11726209_a_at) / RFU RGS16 (11746705_a_at) / Fold change /veh RGS16 (11746705_a_at) / RFU VCAN (11755009_s_at) / Fold change /veh VCAN (11755009_s_at) / RFU RHOB (11743442_s_at) / Fold change /veh RHOB (11743442_s_at) / RFU RGS16 (11720943_a_at) / Fold change /veh RGS16 (11720943_a_at) / RFU RGS16 (11720944_at) / Fold change /veh RGS16 (11720944_at) / RFU, VPS4B / Fold change vs veh, VPS4B / RFU, CREB1 / Fold change vs veh, CREB1 / RFU, DNAJC13 / Fold change vs veh, DNAJC13 / RFU, GNAQ / Fold change vs veh, GNAQ / RFU, CDK5R1 / Fold change vs veh, CDK5R1 / RFU, ZRANB3 / Fold change vs veh, ZRANB3 / RFU, CUL4A / Fold change vs veh, CUL4A / RFU, CCNY / Fold change vs veh, CCNY / RFU, UFL1 / Fold change vs veh, UFL1 / RFU, COG3 / Fold change vs veh, COG3 / RFU, DIAPH2 / Fold change vs veh, DIAPH2 / RFU, SKA2 / Fold change vs veh, SKA2 / RFU, AFF3 / Fold change vs veh, AFF3 / RFU, LMF1 / Fold change vs veh, LMF1 / RFU, IPO11 / Fold change vs veh, IPO11 / RFU, DFFB / Fold change vs veh, DFFB / RFU, FOXP1 / Fold change vs veh, FOXP1 / RFU, CARD8 / Fold change vs veh, CARD8 / RFU, STRN3 / Fold change vs veh, STRN3 / RFU, ADK / Fold change vs veh, ADK / RFU, RASSF2 / Fold change vs veh, RASSF2 / RFU, WIPF1 / Fold change vs veh, WIPF1 / RFU, LARP1B / Fold change vs veh, LARP1B / RFU, RASA1 / Fold change vs veh, RASA1 / RFU, RB1 / Fold change vs veh, RB1 / RFU, PPFIA1 / Fold change vs veh, PPFIA1 / RFU, MAT2A / Fold change vs veh, MAT2A / RFU, CCT5 / Fold change vs veh, CCT5 / RFU, WDR92 / Fold change vs veh, WDR92 / RFU, CUX1 / Fold change vs veh, CUX1 / RFU, TTC7A / Fold change vs veh, TTC7A / RFU, TMEM135 / Fold change vs veh, TMEM135 / RFU, DEPTOR / Fold change vs veh, DEPTOR / RFU, CPM / Fold change vs veh, CPM / RFU, DNAJB6 / Fold change vs veh, DNAJB6 / RFU, CACNA2D3 / Fold change vs veh, CACNA2D3 / RFU, DTX4 / Fold change vs veh, DTX4 / RFU, TFCP2 / Fold change vs veh, TFCP2 / RFU, GMCL1 /// GMCL1P1 / Fold change vs veh, GMCL1 /// GMCL1P1 / RFU, AEBP2 / Fold change vs veh, AEBP2 / RFU, SNHG1 /// SNORD22 /// SNORD25 /// SNORD26 /// SNORD27 /// SNORD28 /// SNORD29 /// SNORD31 / Fold change vs veh, SNHG1 /// SNORD22 /// SNORD25 /// SNORD26 /// SNORD27 /// SNORD28 /// SNORD29 /// SNORD31 / Fold change (Aza/veh), C12orf56 (ProbeSet 11735607_a_at) / Fold change (ACY-1035/veh), C12orf56 (ProbeSet 11735607_a_at) / Fold change (Aza/veh), FGFR1OP (ProbeSet 11751329_s_at) / Fold change (ACY-1035/veh), FGFR1OP (ProbeSet 11751329_s_at) / Fold change (Aza/veh), VPS36 (ProbeSet 11739960_a_at) / Fold change (ACY-1035/veh), VPS36 (ProbeSet 11739960_a_at) / RFU SYPL1 (11715823_x_at) / Fold change /veh SYPL1 (11715823_x_at) / RFU IGFBP7 (11715501_s_at) / Fold change /veh IGFBP7 (11715501_s_at) / RFU REEP3 (11722064_at) / Fold change /veh REEP3 (11722064_at) / RFU IGLL1 (11728026_x_at) / Fold change /veh IGLL1 (11728026_x_at): dose or concentration left out as unconfirmed
Conditions: MV-4-11 cells, 48 hours

Nc1ccc(-c2cccs2)cc1NC(=O)c1ccc2c(c1)cc(C1CC1)n2CCN1CCOCC1 [ACY-1035]
RFU C10orf10 (11716522_x_at): 43.57 RFU

Source: article PMC5218480 (PLoS ONE, 2017)
